The NIST ThermoML archive (doi:10.1016/j.jct.2013.01.032)

Assays:
[1] = mn = molality of the nth substance listed, in mol/kg; conditions: 101 kPa, Liquid; for speed of sound: Sing-around technique in a fixed-path interferometer; for mass density: Vibrating tube method
[2] = osmotic coefficient (dimensionless); mn = molality of the nth substance listed, in mol/kg; conditions: 323.15 K, Liquid, Knauer Osmometer

CCCCn1cc[n+](C)c1.O=S(=O)([O-])C(F)(F)F [1-butyl-3-methylimidazolium trifluoromethanesulfonate] + CCC(C)O
[1]
Conditions	mass density, 293.15 K [kg/m3]	mass density, 308.15 K [kg/m3]	mass density, 323.15 K [kg/m3]	speed of sound, 293.15 K [m/s]	speed of sound, 308.15 K [m/s]	speed of sound, 323.15 K [m/s]
m1 = 0.098	815.49	802.94	789.53	1231	1177.6	1122.9
m1 = 0.149	819.88	807.37	794.01	1231.4	1178.3	1124.1
m1 = 0.201	824.3	811.78	798.46	1231.9	1179.2	1125.5
m1 = 0.249	828.21	815.73	802.45	1232	1179.6	1126.3
m1 = 0.498	847.84	835.4	822.26	1233.7	1182.7	1130.8
m1 = 1.002	882.87	870.47	857.52	1238.2	1189.5	1140.3
m1 = 1.239	897.53	885.16	872.26	1240.2	1192.4	1144
m1 = 1.522	913.81	901.44	888.61	1243.1	1196.2	1148.8
m1 = 1.763	926.62	914.26	901.49	1245.6	1199.4	1152.7
m1 = 2.497	961.11	948.77	936.11	1253.6	1209.2	1164.3
m1 = 2.935	978.86	966.54	953.94	1258.2	1214.5	1170.8

[2]
Conditions	osmotic coefficient
m1 = 0.0481	0.914
m1 = 0.0784	0.806
m1 = 0.1008	0.771
m1 = 0.2021	0.657
m1 = 0.2917	0.568
m1 = 0.3846	0.507
m1 = 0.485	0.472
m1 = 0.7679	0.428
m1 = 1.126	0.379
m1 = 1.523	0.334
m1 = 1.909	0.318
m1 = 2.282	0.31
m1 = 2.574	0.296
m1 = 2.994	0.279
m1 = 3.448	0.275
